{"source": "patent US20230096443A1", "about": "“NOVEL NICOTINAMIDE DI-NUCLEOTIDE DERIVATIVES AND USE THEREOF” (NUVAMID SA, priority 2019, published 2023)", "key": {"[1]": {"tested_on": "CYP-induced visceral pain", "test": "Acute cyclophosphamide (CYP)-induced cystitis model, von Frey mechanical stimulation", "format": "in vivo, female Sprague-Dawley rats", "settings": "500 mg/kg p.o.", "protocol": "The aim of the present study was to evaluate, the effects of oral administration of Nicotinamide Mono-Nucleoside (NMN), Pro-drug A (alpha-NMN) and Pro-drug B (compound I-A), compounds I-B and I-C at 500 mg/kg on visceral pain response in the acute cyclophosphamide (CYP)-induced cystitis model in female Sprague-Dawley rats.\nFemale Sprague-Dawley rats, 7 weeks at delivery\n• NMN: 500 mg/kg • Pro-drug A: 500 mg/kg • Pro-drug B (compound I-A): 500 mg/kg • Compound I-B: 500 mg/kg • Compound I-C; 500 mg/kg • Vehicle: distilled water • Route of administration: per os (p.o.), 5 mL/kg • Frequency of administration: once at DO, 15 min prior CYP intraperitoneal (i.p.) injection.\n=>lowered threshold=allodynia • Nociceptive score: % of the maximal response (total=9 for 3 pooled applications) for each filament"}, "[2]": {"tested_on": "doxorubicin-induced cardiotoxicity", "test": "Model of doxorubicin-induced cardiotoxicity", "format": "in vivo, male mice", "settings": "5 days after DOX 20 mg/kg; for survival rate: 180 mg/kg i.p. once daily; for end-systolic LV volume: vs DOX vehicle group; for heart weight: vs DOX vehicle mice", "protocol": "The aim of the present study was to evaluate, the effects of i.p administration of Nicotinamide Mononucleotide (NMN), compound I-B and compound I-C at 180 mg/kg in the progression of a cardiotoxicity induced by doxorubicin.\n76 male mice, 8-week-old at the arrival were obtained from Janvier Labs, Le Genest St Isle, 53941 St Berthevin, France. Each animal was identified with electronic chip. Each cage was numbered. Based on the animal number/cage and number of cages, the animals were assigned of unique number with the name of group and mice number.\nThe powder of NMN, compounds I-B and I-C (180 mg/kg) were dissolved in vehicle (the solution is used at room temperature for maximum 1 day). A fresh sample for each administration was prepared every day except the week-end (the solution is prepared on Saturday and is used on Saturday and Sunday).\nCardiotoxicity was induced by a single intraperitoneal injection of doxorubicin (DOX) at 20 mg/kg. Doxorubicin was prepared at 2 mg/mL and volume of administration was 10 mL/Kg.\nAt D0, mice were injected with DOX (20 mg/kg) by intraperitoneal route.\nThe treatment with NMN, compounds I-B and I-C was initiated from 5 days before DOX injection, once per day, from D-5 to DO.\nMice were i.p treated with NMN, compounds I-B and I-C 30 min before DOX injection.\nMice were i.p treated with NMN, compounds I-B and I-C for the duration of the experiment (D0 to D5) once per day. Last injection occurred 24 hours before sacrifice.\nThe bodyweight was assessed at inclusion and at D5.\nThe survival rate was recorded every day until the end of the experiment (D5).\nRetro-orbital blood collection was performed at the inclusion and at 1 and 5 days after the […] with DOX to assess biomarker (LDH and creatinine).\nEchocardiography (ECG) was performed 5 days after doxorubicin injection in anesthetized (isoflurane 1.5-2%) animals with non-invasive two-dimensional echocardiography (VF16-5 probe, Siemens, Acuson NX3 Elite). After removing hairs on the chest, numeric images of the heart were obtained in both parasternal long-axis and short axis views.\nThe following cardiac function were assessed during ECG: • Left ventricle (LV) end-systolic and end-diastolic inner diameter; • LV end-systolic and end-diastolic volume, • Fractionnal shortening; • Ejection fraction; • Heart Rate; and • Anterior and posterior wall thickness in Diastole and in systole."}, "SS RBCs": {"tested_on": "SS RBCs", "test": "RBC sickling under hypoxia ex vivo (sickle cell disease mouse model)", "format": "in vivo, Townes S/S mice", "settings": "1% O2 for 30 minutes ex vivo", "protocol": "The aim of the present study was to evaluate, the effects of i.p. administration of Nicotinamide Mononucleotide (NMN), compound I-B and compound I-C at 185 mg/kg as modulator of red blood cell sickling and their potential role in therapy for sickle cell disease on a mouse model of SCD.\nTownes S/S mice on a 129/B6 mixed genetic background.\nThe powder of NMN, compounds I-B and I-C (185 mg/kg) were dissolved in vehicle (the solution was used at room temperature for maximum 1 day). A fresh sample for each administration was prepared every day except the week-end (the solution is prepared on Saturday and is used on Saturday and Sunday).\nIn Townes S/S mice, mouse alpha- and beta-globin gene loci are deleted and replaced by human alpha- and beta-globins. When carrying two copies of the beta S allele, mice develop a human sickle cell disease phenotype with sickle-shaped red blood cells seen in blood smears.\nMice were i.p treated with NMN, compounds I-B and I-C during all the experiment (D0 to D15) once per day. Last injection occurred 24 hours before sacrifice.\nRetro-orbital blood collection was performed at the inclusion D0 and at D5, D10 and D15 through facial vein bleeding.\nRed blood cells collected were submitted to hypoxia (1% O2) for 30 minutes to induce sickling. Percentage of sickle cells was then assessed.\nSS RBCs from treated mice were collected at D0, D5, D10 and D15 and were submitted to hypoxia for 30 minutes in a hypoxic chamber (1% O2). Percentage of sickling RBCs was then assessed for each time point with compounds NMN, I-B and I-C."}, "[3]": {"settings": "after 15 days treatment 185 mg/kg i.p. once daily"}}}
{"molecule": "NC(=O)c1ccc[n+]([C@@H]2O[C@H](COP(=O)([O-])O)[C@@H](O)[C@H]2O)c1", "note": "[NMN, Nicotinamide Mononucleotide, reference compound]", "values": [{"measurement": "nociceptive scores (CYP-induced visceral pain) vs vehicle", "setting": "[1]; +2 h after CYP", "value": "significant decrease"}, {"measurement": "nociceptive threshold (CYP-induced allodynia) vs vehicle", "setting": "[1]; +2 h after CYP", "value": "slight increase"}, {"measurement": "nociceptive scores (CYP-induced visceral pain) vs vehicle", "setting": "[1]; +4 h after CYP", "value": "significant decrease"}, {"measurement": "nociceptive threshold (CYP-induced allodynia) vs vehicle", "setting": "[1]; +4 h after CYP", "value": "slight increase"}, {"measurement": "survival rate", "setting": "[2]", "value": "78 % of survival"}, {"measurement": "ejection fraction", "setting": "[2]; 180 mg/kg i.p.", "value": "56.9±0.6", "unit": "%"}, {"measurement": "fractional shortening", "setting": "[2]; 180 mg/kg i.p.", "value": "around 38%"}, {"measurement": "LV anterior and posterior wall thickness in systole", "setting": "[2]; 180 mg/kg i.p., vs DOX vehicle", "value": "non-significant increases"}, {"measurement": "body weight loss after doxorubicin administration", "setting": "[2]; 180 mg/kg i.p., vs DOX vehicle", "value": "significantly decreased"}, {"measurement": "heart rate (change in words)", "setting": "[2]; 180 mg/kg i.p., vs DOX vehicle", "value": "increased heart rates"}, {"measurement": "reduction in plasma LDH release/levels", "setting": "[2]; 180 mg/kg i.p., vs DOX vehicle", "value": "more than 35%"}, {"measurement": "end-systolic LV volume", "setting": "[2]; 180 mg/kg i.p.", "value": "reduced"}, {"measurement": "percentage of sickling cells", "setting": "SS RBCs; D0 (start of treatment)", "value": 40, "unit": "%"}, {"measurement": "percentage of sickling cells", "setting": "SS RBCs; [3]", "value": "less than 10%"}]}
{"molecule": "NC(=O)c1ccc[n+]([C@H]2O[C@H](COP(=O)([O-])O)[C@@H](O)[C@H]2O)c1", "note": "[Pro-Drug A, alpha-NMN, reference compound]", "values": [{"measurement": "nociceptive scores (CYP-induced visceral pain) vs vehicle", "setting": "[1]; +2 h after CYP", "value": "decrease"}, {"measurement": "nociceptive threshold (CYP-induced allodynia) vs vehicle", "setting": "[1]; +2 h after CYP", "value": "non-significant increase"}, {"measurement": "nociceptive scores (CYP-induced visceral pain) vs vehicle", "setting": "[1]; +4 h after CYP", "value": "achieved the statistical level"}, {"measurement": "nociceptive threshold (CYP-induced allodynia) vs vehicle", "setting": "[1]; +4 h after CYP", "value": "significant increase"}]}
{"molecule": "NC(=O)c1ccc[n+]([C@H]2O[C@H](COP(=O)([O-])OP(=O)([O-])OC[C@H]3O[C@H]([n+]4cccc(C(N)=O)c4)[C@H](O)[C@@H]3O)[C@@H](O)[C@H]2O)c1", "note": "[Compound I-C]", "values": [{"measurement": "nociceptive scores (CYP-induced visceral pain) vs vehicle", "setting": "[1]; +2 h after CYP", "value": "significant decrease"}, {"measurement": "nociceptive scores (CYP-induced visceral pain) vs vehicle", "setting": "[1]; +4 h after CYP", "value": "significant decrease"}, {"measurement": "nociceptive scores (CYP-induced visceral pain) vs vehicle", "setting": "[1]; +6 h after CYP", "value": "significant decrease"}, {"measurement": "nociceptive threshold (CYP-induced allodynia) vs vehicle", "setting": "[1]; +6 h after CYP", "value": "significant increase"}, {"measurement": "survival rate", "setting": "[2]", "value": "100 % of survival"}, {"measurement": "ejection fraction", "setting": "[2]; 180 mg/kg i.p.", "value": "58.2±0.5", "unit": "%"}, {"measurement": "fractional shortening", "setting": "[2]; 180 mg/kg i.p.", "value": "around 38%"}, {"measurement": "LV anterior and posterior wall thickness in systole", "setting": "[2]; 180 mg/kg i.p., vs DOX vehicle", "value": "non-significant increases"}, {"measurement": "body weight loss after doxorubicin administration", "setting": "[2]; 180 mg/kg i.p., vs DOX vehicle", "value": "significantly decreased"}, {"measurement": "heart rate (change in words)", "setting": "[2]; 180 mg/kg i.p., vs DOX vehicle", "value": "increased heart rates"}, {"measurement": "end-systolic LV volume", "setting": "[2]; 180 mg/kg i.p.", "value": "reduced"}, {"measurement": "heart weight", "setting": "[2]; 180 mg/kg i.p.", "value": "tended to increase heart weight"}, {"measurement": "percentage of sickling cells", "setting": "SS RBCs; D0 (start of treatment)", "value": 31, "unit": "%"}, {"measurement": "percentage of sickling cells", "setting": "SS RBCs; [3]", "value": 20, "unit": "%"}]}
{"molecule": "NC(=O)c1ccc[n+]([C@@H]2O[C@H](COP(=O)([O-])OP(=O)([O-])OC[C@H]3O[C@H]([n+]4cccc(C(N)=O)c4)[C@H](O)[C@@H]3O)[C@@H](O)[C@H]2O)c1", "note": "[Compound I-B]", "values": [{"measurement": "nociceptive scores (CYP-induced visceral pain) vs vehicle", "setting": "[1]; +2 h after CYP", "value": "significant decrease"}, {"measurement": "nociceptive scores (CYP-induced visceral pain) vs vehicle", "setting": "[1]; +4 h after CYP", "value": "significant decrease"}, {"measurement": "nociceptive scores (CYP-induced visceral pain) vs vehicle", "setting": "[1]; +6 h after CYP", "value": "significant decrease"}, {"measurement": "nociceptive threshold (CYP-induced allodynia) vs vehicle", "setting": "[1]; +6 h after CYP", "value": "significant increase"}, {"measurement": "survival rate", "setting": "[2]", "value": "98 % of survival"}, {"measurement": "ejection fraction", "setting": "[2]; 180 mg/kg i.p.", "value": "60.0±0.6", "unit": "%"}, {"measurement": "fractional shortening", "setting": "[2]; 180 mg/kg i.p.", "value": "around 38%"}, {"measurement": "heart rate", "setting": "[2]; 180 mg/kg i.p.", "value": "470.1±18.8", "unit": "bpm"}, {"measurement": "LV anterior and posterior wall thickness in systole", "setting": "[2]; 180 mg/kg i.p., vs DOX vehicle", "value": "non-significant increases"}, {"measurement": "body weight loss after doxorubicin administration", "setting": "[2]; 180 mg/kg i.p., vs DOX vehicle", "value": "significantly decreased"}, {"measurement": "end-systolic LV volume", "setting": "[2]; 180 mg/kg i.p.", "value": "reduced"}, {"measurement": "heart weight", "setting": "[2]; 180 mg/kg i.p.", "value": "tended to increase heart weight"}, {"measurement": "percentage of sickling cells", "setting": "SS RBCs; D0 (start of treatment)", "value": 32, "unit": "%"}, {"measurement": "percentage of sickling cells", "setting": "SS RBCs; [3]", "value": "less than 15%"}]}
